Here are results for 6 compounds from patent US20130324576A1, “THERAPEUTIC COMPOUNDS” (Takeda Pharmaceutical Company Limited, priority 2012, published 2013).

Each structure is given as a SMILES string.

The target of this test is T1, human PKR1 receptors (Homo sapiens, UniProt Q8TCW9).
T1 construct: expressed in transfected cells; host or cells: RBL2H3 cells (rat basophilic leukaemia line) expressing human PKR1
T1 sequence (Q8TCW9 whole entry): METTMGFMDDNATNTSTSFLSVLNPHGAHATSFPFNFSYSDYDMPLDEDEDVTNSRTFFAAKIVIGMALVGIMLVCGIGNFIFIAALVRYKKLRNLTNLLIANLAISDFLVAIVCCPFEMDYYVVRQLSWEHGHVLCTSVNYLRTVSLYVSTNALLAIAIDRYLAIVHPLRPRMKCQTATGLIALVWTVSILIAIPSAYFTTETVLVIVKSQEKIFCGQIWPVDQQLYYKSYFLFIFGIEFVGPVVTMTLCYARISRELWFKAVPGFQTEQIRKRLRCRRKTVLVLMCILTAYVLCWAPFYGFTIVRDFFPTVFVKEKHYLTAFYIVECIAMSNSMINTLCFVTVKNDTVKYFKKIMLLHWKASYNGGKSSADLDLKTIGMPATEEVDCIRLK
Description: PKR1 antagonist assay: block of PK1-mediated intracellular calcium release (FLIPR Tetra, Calcium 5 dye). To be noted: RBL2H3 cells expressing human PKR1; 10 min pre-incubation, stimulation with PK1 at EC80; calcium fluorescence. The format is cell-based. The method, boiled down:
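RBL2H3 cells expressing human PKR1, loaded 1 h at 37 °C with Calcium 5 dye plus 1 mM probenecid in HBSS/25 mM HEPES/0.1% BSA, pH 7.4. Compounds (0.32 nM–10 µM final) preincubated 10 min, then PK1 added at EC80; fluorescence read at 525 nm (excitation 485 nm).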
(A change in cytosolic calcium serves as a functional read-out for many receptors and channels.)
Turning to `CCOC(c1ccc(Cl)cc1)C1CCN(S(=O)(=O)c2c(C)n[nH]c2C)CC1` (stereo not drawn) [Example 104, 4-((4-Chlorophenyl)(ethoxy)methyl)-1-((3,5-dimethyl-1H-pyrazol-4-yl)sulfonyl)piperidine], the IC50 – broadly, the concentration at which inhibition is half-maximal – amounted to 720 nM.
Regarding `Cc1n[nH]c(C)c1S(=O)(=O)N1CCC(C(F)c2ccc(Cl)cc2)CC1` (stereo not drawn) [Example 105, 4-((4-Chlorophenyl)fluoromethyl)-1-((3,5-dimethyl-1H-pyrazol-4-yl)sulfonyl)piperidine], the IC50 is 410 nM.
In the case of `Cc1n[nH]c(C)c1S(=O)(=O)N1CCC(O)(Cc2ccc(Cl)cc2)CC1` [Example 108, 4-(4-Chlorobenzyl)-1-((3,5-dimethyl-1H-pyrazol-4-yl)sulfonyl)piperidin-4-ol], the IC50 amounted to 1640 nM.
As to `COCC(c1ccc(Cl)cc1)C1CCN(S(=O)(=O)c2c(C)n[nH]c2C)CC1` (stereo not drawn) [Example 109, 4-(1-(4-Chlorophenyl)-2-methoxyethyl)-1-((3,5-dimethyl-1H-pyrazol-4-yl)sulfonyl)piperidine], the IC50 worked out at 1860 nM.
To `COC(c1ccccc1)C1CCN(S(=O)(=O)c2c(C)n[nH]c2C)CC1` (stereo not drawn) [Example 110, 1-((3,5-Dimethyl-1H-pyrazol-4-yl)sulfonyl)-4-(methoxy(phenyl)methyl)piperidine] belongs 3010 nM; to `Cc1n[nH]c(C)c1S(=O)(=O)N1CCC(C(c2ccc(Cl)cc2)C(F)F)CC1` (stereo not drawn) [Example 111, 4-(1-(4-Chlorophenyl)-2,2-difluoroethyl)-1-((3,5-dimethyl-1H-pyrazol-4-yl)sulfonyl)piperidine], 340 nM.
